Assay results as given in patent US9845321B2, “1,3-dihydro-2H-benzimidazol-2-one derivatives substituted with heterocycles as respiratory syncytial virus antiviral agents” (JANSSEN SCIENCES IRELAND UC, priority 2012, dated 2017).

Key:
in vitro = type: cell-based; conditions: human
Method: (§1) Black 96-well clear-bottom microtiter plates (Corning, Amsterdam, The Netherlands) were filled in duplicate using a customized robot system with serial 4-fold dilutions of compound in a final volume of 50 μl culture medium [RPMI medium without phenol red, 10% FBS, 0.04% gentamycin (50 mg/ml) and 0.5% DMSO]. Then, 100 μl of a HeLa cell suspension (5×10^4 cells/ml) in culture medium was added to each well followed by the addition of 50 μl rgRSV224 (MOI=0.02) virus in culture medium using a multidrop dispenser (Thermo Scientific, Erembodegem, Belgium). rgRSV224 virus is an engineered virus that includes an additional GFP gene (Hallak et al, 2000) and was in-licensed from the NIH (Bethesda, Md., USA). Medium, virus- and mock-infected controls were included in each test. Cells were incubated at 37° C. in a 5% CO2 atmosphere. Three days post-virus exposure, viral replication was quantified by measuring GFP expression in the cells by a MSM laser microscope (Tibotec, Beerse, Belgium). The EC50 was defined as the 50% inhibitory concentration for GFP expression. In parallel, compounds were incubated for three days in a set of white 96-well microtitier plates (Corning) and the cytotoxicity of compounds in HeLa cells was determined by measuring the ATP content of the cells using the ATPlite kit (PerkinElmer, Zaventem, Belgium) according to the manufacturer's instructions. The CC50 was defined as the 50% concentration for cytotoxicity.

rgRSV224 virus = test: Antiviral activity: rgRSV224 (GFP-expressing RSV) replication in HeLa cells, GFP expression measured three days post-virus exposure; type: cell-based; conditions: human respiratory syncytial virus, 72 h, read-out: WT activity pEC50 (converted)
Method: as §1

Row | Structure (SMILES) | melting point [°C] | CC50 at 3 days (in vitro) [nM] | EC50 (rgRSV224 virus) [nM]
1 | CS(=O)(=O)CCCn1c(Cn2c(=O)n(C3CN(S(C)(=O)=O)C3)c3ccncc32)cc2cc(Cl)ccc21 [Compound P5, 3-((5-chloro-1-(3-(methylsulfonyl)propyl)-1H-indol-2-yl)methyl)-1-(1-(methylsulfonyl)azetidin-3-yl)-1H-imidazo[4,5-c]pyridin-2(3H)-one] | 240 | 100000 | 1.58
2 | COc1ccc(-n2c(=O)n(Cc3cc4cc(Cl)ccc4n3CCCC#N)c3cnccc32)c(C)c1 [Compound P20, 4-(5-chloro-2-((1-(4-methoxy-2-methylphenyl)-2-oxo-1H-imidazo[4,5-c]pyridin-3(2H)-yl)methyl)-1H-indol-1-yl)butanenitrile] | 172.59 | > 100000 | 0.398
3 | Cn1ccc(-n2c(=O)n(Cc3cc4cc(Cl)ccc4n3CCCC#N)c3cnccc32)n1 [Compound P36, 4-(5-chloro-2-((1-(1-methyl-1H-pyrazol-3-yl)-2-oxo-1H-imidazo[4,5-c]pyridin-3(2H)-yl)methyl)-1H-indol-1-yl)butanenitrile] | 244 | 63100 | 1.58
4 | N#CCCCn1c(Cn2c(=O)n(-c3ncco3)c3ccncc32)cc2cc(Cl)ccc21 [Compound P37, 4-(5-chloro-2-((1-(oxazol-2-yl)-2-oxo-1H-imidazo[4,5-c]pyridin-3(2H)-yl)methyl)-1H-indol-1-yl)butanenitrile] | 234 | > 100000 | 1.58
5 | O=c1n(Cc2cc3cc(Cl)ccc3n2CCCCF)c2cnccc2n1-c1ccc(Cl)cc1 [Compound P34, 3-((5-chloro-1-(4-fluorobutyl)-1H-indol-2-yl)methyl)-1-(4-chlorophenyl)-1H-imidazo[4,5-c]pyridin-2(3H)-one] | 168 | > 100000 | 31.6
